Experimental findings from ChEMBL document CHEMBL3414484, “Novel imidazole derivatives as heme oxygenase-1 (HO-1) and heme oxygenase-2 (HO-2) inhibitors and their cytotoxic activity in human-derived cancer cell lines” (Eur J Med Chem, 2015) are described below.

The target in one assay is T1, Heme oxygenase 2 (Rattus norvegicus, UniProt P23711).
T1 sequence (P23711 whole entry): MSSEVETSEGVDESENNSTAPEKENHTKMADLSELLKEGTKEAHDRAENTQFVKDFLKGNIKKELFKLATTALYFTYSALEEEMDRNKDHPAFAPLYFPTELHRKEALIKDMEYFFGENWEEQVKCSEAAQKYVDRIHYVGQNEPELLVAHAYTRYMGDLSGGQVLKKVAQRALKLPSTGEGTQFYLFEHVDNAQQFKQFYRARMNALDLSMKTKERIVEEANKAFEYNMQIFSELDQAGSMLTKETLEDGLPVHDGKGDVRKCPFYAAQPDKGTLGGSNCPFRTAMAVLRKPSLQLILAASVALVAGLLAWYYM
The assay can be described thus: Inhibition of HO2 in Sprague-Dawley rat brain microsomal fraction assessed as reduction in bilirubin formation incubated for 60 mins by double beam spectrophotometry.

The test system of assay [1] is MDCK. The assay can be described thus: Selectivity index, ratio of IC50 for MDCK cells to IC50 human PC3 cells.
The subject of assay [2] is DU-145. The assay can be described thus: Selectivity index, ratio of IC50 for MDCK cells to IC50 human DU145 cells.
A further assay relates to MCF7. Briefly: Cytotoxicity against human MCF7 cells incubated for 72 hrs by sulforhodamine B assay. It is filed as functional, cell-based. Particulars: MCF7, 72 h. Background: In SRB staining, fixed cells bind dye roughly in proportion to their protein.
The test system of assay [3] is LNCaP. The assay can be described thus: Cytotoxicity against human LNCAP cells incubated for 72 hrs by sulforhodamine B assay. It counts as functional, cell-based.
Assay [4] can be described thus: Cytotoxicity against human PC3 cells incubated for 72 hrs by sulforhodamine B assay. Particulars: PC-3, 72 h. It is filed as functional, cell-based.
In assay [5] the test system is DU-145. The assay can be described thus: Cytotoxicity against human DU145 cells incubated for 72 hrs by sulforhodamine B assay. It is filed as functional, cell-based. Particulars: DU-145, 72 h.
Assay [6] relates to LNCaP. Briefly: Selectivity index, ratio of IC50 for MDCK cells to IC50 human LNCAP cells.
Assay [7] concerns MDCK. Briefly: Selectivity index, ratio of IC50 for MDCK cells to IC50 human MDA-MB-231 cells.
In a further assay the test system is MDA-MB-231. Briefly: Cytotoxicity against human MDA-MB-231 cells incubated for 72 hrs by sulforhodamine B assay. It is filed as functional, cell-based. The conditions noted are these: MDA-MB-231, 72 h.
Assay [8] deals with MDCK. Briefly: Selectivity index, ratio of IC50 for MDCK cells to IC50 human MCF7 cells.
Assay [9] concerns MDCK. The assay can be described thus: Cytotoxicity against MDCK cells incubated for 72 hrs by sulforhodamine B assay. It counts as cell-based. Particulars: Canis lupus familiaris.
Another assay concerns the target T2, Heme oxygenase 1 (Rattus norvegicus, UniProt P06762).
T2 sequence (P06762 whole entry): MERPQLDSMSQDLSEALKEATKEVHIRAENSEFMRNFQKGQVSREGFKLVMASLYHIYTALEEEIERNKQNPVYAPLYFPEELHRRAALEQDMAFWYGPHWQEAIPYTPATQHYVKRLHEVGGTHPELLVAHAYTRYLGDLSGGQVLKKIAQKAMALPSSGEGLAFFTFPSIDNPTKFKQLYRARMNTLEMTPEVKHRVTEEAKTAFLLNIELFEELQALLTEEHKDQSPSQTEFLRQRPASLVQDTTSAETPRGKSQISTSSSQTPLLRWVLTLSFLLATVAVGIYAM
The assay can be described thus: Inhibition of HO1 in Sprague-Dawley rat spleen microsomal fraction assessed as reduction in bilirubin formation incubated for 60 mins by double beam spectrophotometry. It is filed as microsomes.

For the compound `Brc1cccc(OCCCCn2cncn2)c1`, on Heme oxygenase 2, the concentration for half-maximal inhibition (IC50) was 11.2 µM.
Same read-out and setting: under `O=[N+]([O-])c1ccc(OCCCn2cncn2)cc1` stands 44.7 µM; under `c1ccc(OCCCn2cncn2)cc1`, greater than 100 µM; under `O=[N+]([O-])c1ccc(OCCCn2ccnc2)cc1`, 77.6 µM.
On the same count and under the same terms, as for `O=[N+]([O-])c1ccc(OCCCCn2cncn2)cc1`, the figure is 41.7 µM; as for `Brc1cccc(OCCCn2cncn2)c1`, 33.9 µM; as for `Ic1ccc(OCCCn2ccnc2)cc1`, 36.3 µM.
On to `Ic1ccc(OCCCCn2ccnc2)cc1`, for which the “Ratio IC50” value in the assay on MDCK [1], with DU-145 [2], in the assay with LNCaP [6], in the assay on MDCK [7] and in the assay on MDCK [8] was 2 throughout. Moreover, the concentration for half-maximal inhibition (IC50) in the assay with MCF7 was 27.7 µM; in the assay with LNCaP [3], 16.9 µM; in assay [4], 82.5 µM; in the assay with DU-145 [5], 54.9 µM; with MDA-MB-231, 55.1 µM; in the assay on MDCK [9] it was 103 µM.
Consider `Brc1cccc(OCCCCCn2ccnc2)c1`, for which the IC50 on Heme oxygenase 1 worked out at 42.6 µM; on Heme oxygenase 2, 0.9 µM.
For `Brc1cccc(OCCCCCCn2ccnc2)c1`, the IC50 is 34 µM at Heme oxygenase 1 and 41 µM at Heme oxygenase 2.
For `Ic1ccc(OCCCCCn2ccnc2)cc1`, the “Ratio IC50” value in the assay on MDCK [1], in the assay on DU-145 [2], in the assay with LNCaP [6], with MDCK [7] and with MDCK [8] was 2 in each case. Besides, the concentration for half-maximal inhibition (IC50) in the assay on MCF7 was found to be 11 µM; in the assay on LNCaP [3], 27.8 µM; on Heme oxygenase 1 it was 44 µM; in assay [4], 27.6 µM; in the assay on DU-145 [5], 27.7 µM; on Heme oxygenase 2, 0.9 µM. In addition, the IC50 in the assay with MDA-MB-231 came out at 27.4 µM; in the assay on MDCK [9], 55.1 µM.
On to `Ic1ccc(OCCCCCCn2ccnc2)cc1`, for which the IC50 at Heme oxygenase 1 is 42 µM; at Heme oxygenase 2, greater than 100 µM.
In the same order, the values of `c1ccc2oc(SCCCn3ccnc3)nc2c1` are 16.9 µM and 49 µM.
Take `c1ccc2oc(SCCCCn3ccnc3)nc2c1`: the IC50 amounted to 30.9 µM at Heme oxygenase 1 and 74.1 µM on Heme oxygenase 2.
`c1ccc2sc(SCCCn3ccnc3)nc2c1`: the “Ratio IC50” value in the assay with MDCK [1], in the assay with DU-145 [2], in the assay on LNCaP [6], with MDCK [7] and with MDCK [8] was 2 throughout. In addition, the IC50 was 27.5 µM in the assay with MCF7; 55 µM in the assay with LNCaP [3]; 0.9 µM at Heme oxygenase 1; 82.6 µM in assay [4]; 54.8 µM in the assay with DU-145 [5]; 12.5 µM on Heme oxygenase 2. Further, the half-inhibitory concentration (IC50) is 55.1 µM with MDA-MB-231 and 82.4 µM with MDCK [9].
As to `c1ccc2sc(SCCCCn3ccnc3)nc2c1`, the “Ratio IC50” value in the assay on MDCK [1], in the assay with DU-145 [2], in the assay on LNCaP [6], with MDCK [7] and in the assay with MDCK [8] was 2 each time. Also, the IC50 amounted to 27.5 µM with MCF7; 54.7 µM in the assay on LNCaP [3]; 1 µM on Heme oxygenase 1; 82.5 µM in [4]; 82.2 µM with DU-145 [5]; 0.8 µM at Heme oxygenase 2. Moreover, the figures for the 50% inhibitory concentration (IC50) with MDA-MB-231 and with MDCK [9] were 55.1 µM and 58.5 µM, respectively.
As to `c1ccc2sc(SCCCCCn3ccnc3)nc2c1`, the IC50 on Heme oxygenase 1 amounted to 39.8 µM; at Heme oxygenase 2, 11.2 µM.
In the same order, the values of `Clc1ccc2sc(SCCCn3ccnc3)nc2c1` are 18.4 µM and 0.9 µM.
In the same order, the values of `Clc1ccc2sc(SCCCCn3ccnc3)nc2c1` are greater than 100 µM and 0.9 µM.
Consider `Clc1ccc2sc(SCCCCCn3ccnc3)nc2c1`, for which the 50% inhibitory concentration (IC50) at Heme oxygenase 1 worked out at 36.3 µM; at Heme oxygenase 2, 0.9 µM.
On to `O=c1oc2ccccc2n1CCCCn1ccnc1`, for which the figures for the IC50 at Heme oxygenase 1 and on Heme oxygenase 2 were 17.7 µM and 35.5 µM, respectively.
In the same order, the values of `O=c1sc2ccccc2n1CCCn1ccnc1` are 16.6 µM and 28.8 µM.
For `Brc1cccc(OCCCCCn2cncn2)c1`, the IC50 worked out at 20 µM on Heme oxygenase 1 and 0.8 µM on Heme oxygenase 2.
Consider `Brc1cccc(OCCCCn2ccnc2)c1`, for which the “Ratio IC50” value in the assay with MDCK [1], in the assay on DU-145 [2], in the assay with LNCaP [6], with MDCK [7] and in the assay with MDCK [8] was 2 each time. Besides, the IC50 stood at 27.6 µM in the assay on MCF7; 27.6 µM in the assay on LNCaP [3]; 54.9 µM in assay [4]; 46.6 µM in the assay with DU-145 [5]; 27.5 µM in the assay on MDA-MB-231; 82.4 µM with MDCK [9].

The term IC50 denotes the concentration that inhibits the measured activity by half.
